Source: US20100056522A1, “INTRAOCULAR PRESSURE-LOWERING AGENT COMPRISING COMPOUND HAVING HISTONE DEACETYLASE INHIBITOR EFFECT AS ACTIVE INGREDIENT” (Santen Pharmaceutical Co., Ltd., priority 2007, published 2010)

Tests used:
[1] = tested on: HDAC (HeLa nuclear extract); assay: Test for evaluation of an HDAC inhibitory effect (HDAC Fluorimetric Assay/Drug Discovery Kit, Biomol); type: biochemical; conditions: final concentration of test compound 30 μM, rates of more than 100% are shown as 100%
Method: Using HDAC Fluorimetric Assay/Drug Discovery Kit (manufactured by Biomol), an HDAC inhibitory effect of the present compounds was measured according to the protocol included with the kit. The kit contains Buffer, HeLa nuclear extract (includes an HDAC), Substrate, Developer and Trichostatin A (an HDAC inhibitor).
A test compound was dissolved in dimethyl sulfoxide, whereby a 2 mg/mL solution was prepared. Then, the resulting solution was diluted with Buffer containing 5% dimethyl sulfoxide, whereby a 150 μM test compound solution was prepared.
1) To a 384-well culture plate, the test compound solution was added in an amount of 2 μL per well.
2) HeLa nuclear extract was diluted 30-fold with Buffer. The resulting solution was added in an amount of 3 μL per well and then, incubation was performed at 37° C. for 2 hours.
3) Substrate was diluted 500-fold with Buffer. The resulting solution was added in an amount of 5 μL per well (the final concentration of the test compound was 30 μM) and then, incubation was performed at 37° C. for 10 minutes.
4) Developer was diluted 20-fold with Buffer and Trichostatin A (2 μM) was added to it. The resulting solution was added in an amount of 10 μL per well and then, incubation was performed at room temperature for 15 minutes.
5) The fluorescence intensity of each well was measured using multilabel counter ARVO (manufactured by Wallac) with excitation at 360 nm and emission at 460 nm.
6) A control data was obtained from the same experiment except that Buffer containing 5% DMSO was added instead of the test compound solution as the above-mentioned procedure from 1) to 5).
7) A blank data was obtained from the same experiment except that Buffer containing 5% DMSO was added instead of the test compound solution and that Buffer was added instead of Hela nuclear extract as the above-mentioned procedure from 1) to 5).
Enzyme inhibitory rate (%) was calculated using the following equation.
(Enzyme Inhibitory Rate(%))=100×[1−{(Fluorescence Intensity of Test Compound Solution)−(Florescence Intensity of Blank)}/{(Florescence Intensity of Control)−(Florescence Intensity of Blank)}]

[2] = tested on: TM-1 cells (human trabecular meshwork cell line); assay: Test for evaluation of effect of morphological change on trabecular meshwork cells (cell shape index); type: cell-based; conditions: 10 μM, 24 hours, control CSI 0.679, lower CSI indicates greater morphological change
Method: As a method for evaluating a cellular morphological change, an evaluation system using the cell shape index (hereinafter referred to as “CSI”) as an index has been reported in The Journal of Clinical Investigation, 103, 1141-1150 (1999). Therefore, according to the method described in the above document, an effect of morphological change by the present compounds on trabecular meshwork cells was evaluated.
A human trabecular meshwork cell line (hereinafter referred to as “TM-1 cells”) reported in Investigative Opthalmology & Visual Science, 43, 151-161 (2002) was used.
Culture medium 1: A reagent was prepared by adding fetal bovine serum (10%), L-glutamine (2 mM), amphotericin B (2.5 μg/mL), and gentamicin (25 μg/mL) to Dulbecco's Modified Eagle Medium (hereinafter referred to as “D-MEM”).
Culture medium 2: Fetal bovine serum (3%), L-glutamine (2 mM), amphotericin B (2.5 μg/mL), and gentamicin (25 μg/mL) were added to D-MEM.
Cell staining liquid: A mixed liquid of Calcein-AM (16 μM) and Hoechst 33342 (40 μM) was prepared by diluting a Calcein-AM solution (cytoplasmic staining reagent, manufactured by Dojindo Laboratories) and a Hoechst 33342 solution (nuclear staining reagent, manufactured by Dojindo Laboratories) with D-MEM containing L-glutamine (2 mM), amphotericin B (2.5 μg/mL), and gentamicin (25 μg/mL).
TM-1 cells subcultured at 37° C. in a 8% carbon dioxide gas atmosphere were treated with a trypsin/EDTA solution (0.05% trypsin and 0.53 mM tetrasodium ethylenediaminetetraacetate) at 24 hours before performing a drug treatment mentioned below and seeded on a 96-well culture plate. The culture medium 1 was used for the subculture of the cells. The culture medium 2 was used for the cell culture after seeding the cells on the plate.
A test compound was dissolved in dimethyl sulfoxide, whereby a 5 mM solution was prepared. Then, the resulting solution was diluted with the culture medium 2, whereby a 200 μM test compound solution was prepared.
It has been reported that Y-27632 which is a Rho kinase inhibitor induces a morphological change in trabecular meshwork cells in Investigative Opthalmology & Visual Science, 42, 137-144 (2001). Therefore, Y-27632 (produced according to the method described in WO 90/05723) was used as a positive control, and dissolved in dimethyl sulfoxide in the same manner as the test compound, whereby a 5 mM solution was prepared, and then, the resulting solution was diluted with the culture medium 2, whereby a 200 μM positive control compound solution was prepared.
1) To a 96-well culture plate, a solution of TM-1 cells adjusted to a cell density of […] was added in an amount of 95 μL (1.5×10^4 cells) per well.
2) Incubation was performed at 37° C. in a 8% carbon dioxide gas atmosphere for 24 hours.
3) The test compound solution or positive control compound solution was added in an amount of 5 μL per well (the final concentration of the test compound or positive control compound was 10 μM). As a control, the culture medium 2 containing dimethyl sulfoxide (4%) was added in an amount of 5 μL per well.
4) Incubation was performed at 37° C. in a 8% carbon dioxide gas atmosphere for 24 hours.
5) The cell staining liquid was added in an amount of 10 μL per well.
6) Incubation was performed at 37° C. in a 8% carbon dioxide gas atmosphere for 1 hour to stain the cells.
7) A 37% formaldehyde solution was added in an amount of 10 μL per well.
8) Incubation was performed at room temperature for 1 hour to fix the cells.
9) Washing with phosphate-buffered saline was performed.
10) Using Array Scan Vti HCS reader (manufactured by Cellomics), images of stained cells magnified with a 20-fold objective lens were captured in 80 fields (10 fields×8 wells) per test compound addition group.
11) CSI was calculated for each cell and an average value was obtained for each test compound addition group.
CSI was calculated using the following equation.
CSI=4π×(Cell Area)/(Cell Perimeter)^2

[3] = tested on: male Japanese White rabbits; assay: Test for evaluation of intraocular pressure-lowering effect by intracameral administration; type: in vivo; conditions: 1 mM administration liquid, 20 μL intracameral, 8 or 9 hours after administration, vs vehicle control group, 6 cases
Method: In order to evaluate an intraocular pressure-lowering effect of the present compounds, a test for evaluation of intraocular pressure-lowering effect by intracameral administration of a drug using male Japanese White rabbits was performed.
A test compound was dissolved or suspended in physiological saline containing 0.5% dimethyl sulfoxide, whereby a 0.1 mM or 1 mM test compound administration liquid was prepared.
One drop of 0.4% oxybuprocaine hydrochloride eye drop was instilled into both eyes of each male Japanese White rabbit to achieve local anesthesia, and thereafter, the intraocular pressure was measured using an applanation tonometer. Then, by using a syringe fitted with a 30-gauge needle, the test compound administration liquid (20 μL) was intracamerally administered to one eye. As a control, 20 μL of the vehicle (physiological saline containing 0.5% dimethyl sulfoxide) for the test compound was intracamerally administered. After the lapse of a certain period of time from the administration of the test compound or vehicle, one drop of 0.4% oxybuprocaine hydrochloride eye drop was instilled into the administered eye to achieve local anesthesia, and thereafter, the intraocular pressure was measured using an applanation tonometer.
The intraocular pressure-lowering effect of each test compound was evaluated by calculating an intraocular pressure reduction rate. The intraocular pressure reduction rate (%) was calculated using the following equation.
(Intraocular Pressure Reduction Rate(%))=100×[{(Average Value of Intraocular Pressure of Control Group)−(Average Value of Intraocular Pressure of Each Test Compound Administration Group)}/(Average Value of Intraocular Pressure of Control Group)]

Row | Structure (SMILES) | Enzyme Inhibitory Rate (%) [1] [%] | CSI [2] | Intraocular Pressure Reduction Rate (%) [3] [%]
1 | CN(C)CCN(Cc1ccc(C(=O)Nc2ccccc2N)nc1)C(=O)Nc1nccs1 [Compound 1-96, N-(2-Aminophenyl)-5-[1-(2-dimethylaminoethyl)-3-(1,3-thiazol-2-yl)ureidomethyl]pyridine-2-carboxylic acid amide] | 98 | 0.489 | 18
2 | Cc1cccc(NC(=O)N(CCCN2CCC(C)CC2)Cc2ccc(C(=O)Nc3ccccc3N)nc2)c1 [Compound 1-116, N-(2-Aminophenyl)-5-[3-(3-methylphenyl)-1-[3-(4-methylpiperidin-1-yl)propyl]ureidomethyl]pyridine-2-carboxylic acid amide] | 100 | 0.455 | –
3 | Nc1ccccc1NC(=O)c1ccc(CN(CCCCCN2CCOCC2)C(=O)NC2CCCC2)cn1 [Compound 1-141, N-(2-Aminophenyl)-5-[3-cyclopentyl-1-[5-(morpholin-4-yl)pentyl]ureidomethyl]pyridine-2-carboxylic acid amide] | 91 | 0.515 | –
4 | CN(C)c1ccc(NC(=O)N(CCCN2CCOCC2)Cc2ccc(C(=O)Nc3ccccc3N)nc2)cc1 [Compound 2-1, N-(2-Aminophenyl)-5-[3-(4-dimethylaminophenyl)-1-[3-(morpholin-4-yl)propyl]ureidomethyl]pyridine-2-carboxylic acid amide] | 98 | 0.574 | –
5 | CCN(CC)c1ccc(NC(=O)N(CCCN(C)C)Cc2ccc(C(=O)Nc3ccccc3N)nc2)cc1 [Compound 2-3, N-(2-Aminophenyl)-5-[3-(4-diethylaminophenyl)-1-(3-dimethylaminopropyl)ureidomethy]pyridine-2-carboxylic acid amide] | 100 | 0.550 | –
6 | Nc1ccccc1NC(=O)c1ccc(CN(CCO)C(=O)Nc2ccc3c(c2)OCCO3)cn1 [Compound 2-10, N-(2-Aminophenyl)-5-[3-(2,3-dihydrobenzo[1,4]dioxin-6-yl)-1-(2-hydroxyethyl)ureidomethyl]pyridine-2-carboxylic acid amide] | 99 | 0.582 | –
7 | CN(C)c1ccc(C(=O)NCCCCCCC(=O)NO)cc1 [M 344, 4-Dimethylamino-N-(6-hydroxycarbamoylhexyl)benzamide, reference compound] | 99 | 0.500 | –
8 | Cc1ccc(C(=O)c2cc(/C=C/C(=O)NO)n(C)c2)cc1 [MC1293, (E)-N-Hydroxy-3-[1-methyl-4-(4-methylbenzoyl)-1H-pyrrol-2-yl]-2-propenamide, reference compound] | 65 | 0.628 | –
9 | Nc1ccccc1NC(=O)c1ccc(CNc2nccc(-c3cccnc3)n2)cc1 [MGCD-0103 free base, N-(2-Aminophenyl)-4-[4-(pyridin-3-yl)pyrimidin-2-ylaminomethyl]benzamide, reference compound] | 96 | 0.584 | 23
10 | Nc1ccccc1NC(=O)c1ccc(CNC(=O)OCc2cccnc2)cc1 [MS 275, N-(2-Aminophenyl)-4-(pyridin-3-ylmethyloxycarbonylaminomethyl)benzamide, reference compound] | 99 | 0.552 | 13
11 | O=C(CCCCCCC(=O)Nc1ccccc1)NO [SAHA, N-Hydroxy-N′-phenyloctanediamide, reference compound] | – | 0.501 | 17
12 | CC(/C=C/C(=O)NO)=C\[C@@H](C)C(=O)c1ccc(N(C)C)cc1 [Trichostatin A, reference compound] | 100 | 0.496 | 18
